Columns and labels:
BACE2 = molecular target: T1, BACE2 (Homo sapiens, UniProt Q9Y5Z0); test: BACE2 biochemical FRET based assay (Test Example 2-4); conditions: recombinant BACE2 0.4 μg/mL, 10 μM substrate, 450 minutes, pH 5.0; read-out: BACE2 Biochemical FRET based assay pIC50 (converted)
T1 sequence (Q9Y5Z0 63-518): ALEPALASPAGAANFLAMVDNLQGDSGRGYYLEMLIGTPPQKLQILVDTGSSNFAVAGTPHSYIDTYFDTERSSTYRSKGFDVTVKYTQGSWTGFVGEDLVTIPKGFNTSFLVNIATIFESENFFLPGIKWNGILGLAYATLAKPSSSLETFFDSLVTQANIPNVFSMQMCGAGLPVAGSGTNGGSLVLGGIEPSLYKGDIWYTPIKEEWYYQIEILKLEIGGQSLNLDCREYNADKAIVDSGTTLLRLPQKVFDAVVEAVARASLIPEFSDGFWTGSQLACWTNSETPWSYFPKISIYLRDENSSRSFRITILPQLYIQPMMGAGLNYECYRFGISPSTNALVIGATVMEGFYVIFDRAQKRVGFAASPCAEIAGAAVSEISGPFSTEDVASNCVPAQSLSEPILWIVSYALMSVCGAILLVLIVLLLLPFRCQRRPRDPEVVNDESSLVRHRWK
From the text: (§1) This assay is a Fluorescence Resonance Energy Transfer Assay (FRET) based assay. The substrate for this assay contains the ‘Swedish’ Lys-Met/Asn-Leu mutation of the amyloid precursor protein (APP) beta-secretase cleavage site. This substrate also contains two fluorophores: (7-methoxycoumarin-4-yl) acetic acid (Mca) is a fluorescent donor with excitation wavelength at 320 nm and emission at 405 nm and 2,4-dinitrophenol (Dnp) is a proprietary quencher acceptor. […] Upon cleavage by the beta-secretase, the fluorophore Mca is separated from the quenching group Dnp, restoring the full fluorescence yield of the donor. The increase in fluorescence is linearly related to the rate of proteolysis.
Briefly in a 384-well format recombinant BACE2 protein in a final concentration of 0.4 μg/mL is incubated for 450 minutes at room temperature with 10 μM substrate in incubation buffer (final concentrations: 33.3 mM Citrate buffer pH 5.0, 0.033% PEG, 2% DMSO) in the absence or presence of compound. Next the amount of proteolysis is directly measured by fluorescence measurement at T=0 and T=450 (excitation at 320 nm and emission at 405 nm). Results are expressed in RFU (Relative Fluorescence Units), as difference between T450 and TO.
(§2) Data are analysed using Screener (Registered trademark) (Genedata, Switzerland). Data were normalized and % inhibition=100−[(sample−LC)/(HC−LC))*100], was plotted versus the log concentration of the test compound. Curves were analysed using non-linear regression analysis and IC50 values (inhibitory concentration causing 50% inhibition of activity) were derived from individual curves.
(§3) LC=Median of the low control values
(§4) =Low control: Reaction without enzyme
(§5) HC=Median of the High control values
(§6) =High Control: Reaction with enzyme
(§7) % Inhibition=100−[(sample−LC)/(HC−LC)*100]

BACE1 [1] = molecular target: T2, BACE1 (Homo sapiens, UniProt P56817); test: BACE1 cellular αLisa assay in SKNBE2 cells, Abeta 1-42 (Test Example 2-3); format: cell-based; set-up: endogenous in cells; host or cells: SKNBE2 human neuroblastoma cells expressing hAPP695; conditions: SKNBE2 cells expressing hAPP695, 18 hours incubation, read-out: Cellular αLisa assay in SKNBE2 cells Abeta 42 pIC50 (converted)
T2 sequence (P56817 46-501): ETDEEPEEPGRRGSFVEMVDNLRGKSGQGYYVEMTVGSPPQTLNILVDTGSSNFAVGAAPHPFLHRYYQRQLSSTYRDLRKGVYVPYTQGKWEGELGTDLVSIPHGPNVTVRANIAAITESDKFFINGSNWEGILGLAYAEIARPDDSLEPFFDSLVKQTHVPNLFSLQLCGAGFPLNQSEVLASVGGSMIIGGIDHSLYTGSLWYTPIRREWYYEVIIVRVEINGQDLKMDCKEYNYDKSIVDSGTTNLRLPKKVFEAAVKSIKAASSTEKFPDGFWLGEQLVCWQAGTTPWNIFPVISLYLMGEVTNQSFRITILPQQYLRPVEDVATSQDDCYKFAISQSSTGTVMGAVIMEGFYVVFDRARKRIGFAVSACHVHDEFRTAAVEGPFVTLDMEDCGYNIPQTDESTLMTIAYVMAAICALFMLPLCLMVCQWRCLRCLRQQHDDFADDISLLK
Method: In two αLisa assays the levels of Abeta 1-42 or Abeta total produced and secreted into the medium of human neuroblastoma SKNBE2 cells are quantified. The assays are based on the human neuroblastoma SKNBE2 expressing the wild type Amyloid Precursor Protein (hAPP695). The compounds are diluted and added to these cells, incubated for 18 hours and then measurements of Abeta 1-42 or Abeta total are taken. Abeta 1-42 or Abeta total are measured by sandwich αLisa using biotinylated antibody AbN/25 attached to streptavidin coated donor beads and antibody cAb42/26 or Ab 4G8 conjugated acceptor beads for the detection of Abeta 1-42 or Abeta total respectively. In the presence of Abeta 1-42 or Abeta total, the beads come into close proximity. The excitation of the donor beads provokes the release of singlet oxygen molecules that trigger a cascade of energy transfer in the acceptor beads, resulting in light emission. Light emission is measured after 1 h incubation (excitation at […] and emission at 615 nm).
as §2
LC=Median of the low control values • =Low control: Reaction without enzyme
HC=Median of the High control values • =High Control: Reaction with enzyme
as §7

BACE1 [2] = molecular target: T2, BACE1; test: BACE1 biochemical FRET based assay - Method 1 (Test Example 2-2); conditions: 0.04 μg/mL BACE1, 450 minutes, Citrate buffer pH 5.0, read-out: BACE1 Biochemical FRET based assay - Method 1 PIC50 (converted)
From the text: as §1, with “this assay is an APP derived 13 amino acids peptide that contains the” for “this assay contains the”, “protein (APP) beta-site secretase cleavage site.” for “protein (APP) beta-secretase cleavage site.”, “cleavage by BACE1, the fluorophore” for “cleavage by the beta-secretase, the fluorophore”
Briefly in a 384-well format recombinant BACE1 protein in a final concentration of 0.04 μg/mL is incubated for 450 minutes at room temperature with […] substrate in incubation buffer (final concentrations: 33.3 mM Citrate buffer pH 5.0, 0.033% PEG, 3% DMSO) in the absence or presence of compound. Next the amount of proteolysis is directly measured by fluorescence measurement at T=0′-120′ and T=450′ (excitation at 320 nm and emission at 405 nm). Results are expressed in RFU (Relative Fluorescence Units), as difference between T450 and Tx (Tx is chosen depending on the reaction speed between 0 and 120 minutes.).
as §2, §3, §4, §5, §6, §7

[3] = test system: Abeta 1-37, Abeta 1-38, Abeta 1-40 and Abeta 1-42 in cerebrospinal fluid (CSF); test: Pharmacology in the beagle dog, beta-amyloid profile in CSF (Test Example 18-2); format: in vivo; conditions: single dose 0.63 mg/kg
Method: Test compounds were tested to evaluate the effect on the beta-amyloid profile in cerebrospinal fluid (CSF) of dogs after a single dose, in combination with pharmacokinetic (PK) follow up and limited safety evaluation.
For each of compound II-6 or II-10, four beagle dogs (2 males, 2 females) were dosed with vehicle (1 mL/kg of an aqueous solution of 20% cyclodextrin) and 12 beagle dogs (2 males and 2 females per dosage group) were dosed with test compounds as follows:
In the case of compounds II-2, II-3 and II-18, two beagle dogs (1 male, 1 female) were dosed with vehicle (1 mL/kg of an aqueous solution of 20% cyclodextrin) and 4 beagle dogs (2 males and 2 females) were dosed with test compound (II-2, II-3, or II-18) at the doses indicated in the following Table in an aqueous 20% cyclodextrin solution with a concentration in mg/mL identical to the dose given in mg/kg) on an empty stomach.
CSF was taken in conscious animals directly from the lateral ventricle via a cannula which was screwed in the skull and covered with subcutaneous tissue and skin, before and at 4, 8, 25 and 49 hours after dosing. Eight hours after dosing the animals got access to their regular meal for 30 minutes. Blood was taken for PK follow up (0.5, 1, 2, 4, 8, 25 and 49 hours) and serum samples for biochemistry were taken before and at 8 and 25 h after dosing. The CSF samples were used for measurement of Abeta 1-37, Abeta 1-38, Abeta 1-40 and Abeta 1-42.

IC50 (BACE2): 240 nM | IC50 (BACE1 [1]): 4.47 nM | IC50 (BACE1 [2]): 3.24 nM | melting point: 195 °C
SMILES: CC1(S(C)(=O)=O)CCC(CF)(c2cc(NC(=O)c3cc4c(cn3)OC(F)(F)O4)cc(F)c2F)N=C1N (stereo not drawn) [II-18]
% Decrease in Abeta 1-42 at 8 h post dosing compared to own baseline ([3]; 8 h): 53% | % Decrease in Abeta 1-42 at 24 h^(a) or 25 h^(b) post dosing compared to own baseline ([3]; 24 h or 25 h): 27%
